Measured values: patent US20240252488A1 (KOREA RESEARCH INSTITUTE OF CHEMICAL TECHNOLOGY, priority 2020, published 2024)
pKd: −log10 of the molar value.

Columns and labels:
MLKL [1] = target: T1, MLKL (Homo sapiens, UniProt Q8NB16); test: MLKL degradation assay in HepG2 cell line (western blot); format: cell-based; parameters: endogenous in cells; host or cells: HepG2 or HaCaT; details: cell line not given; for Degradation assay (Degradation %) 1 μM: compound 1 μM; for Degradation assay (Degradation %) 10 μM: compound 10 μM
T1 sequence (Q8NB16 1-471): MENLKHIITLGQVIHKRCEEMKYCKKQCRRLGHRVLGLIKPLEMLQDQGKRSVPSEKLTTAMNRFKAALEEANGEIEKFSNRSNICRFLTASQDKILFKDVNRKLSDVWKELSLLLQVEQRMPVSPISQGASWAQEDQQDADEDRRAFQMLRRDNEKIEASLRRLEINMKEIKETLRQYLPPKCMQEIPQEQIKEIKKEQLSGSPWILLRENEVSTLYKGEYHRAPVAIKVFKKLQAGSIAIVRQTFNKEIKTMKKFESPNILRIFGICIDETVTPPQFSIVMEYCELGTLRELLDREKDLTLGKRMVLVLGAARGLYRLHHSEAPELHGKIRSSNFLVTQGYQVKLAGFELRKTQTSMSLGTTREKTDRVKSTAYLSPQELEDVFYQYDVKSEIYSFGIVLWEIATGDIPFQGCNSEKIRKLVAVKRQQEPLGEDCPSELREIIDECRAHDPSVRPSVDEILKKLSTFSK
Summary of the method: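 Chemiluminescent western blot signal reports remaining MLKL protein in HepG2 cells after 20-24 h treatment with compound at a final 1 or 10 μM. Equal protein (10-15 μg, BCA) is loaded per lane.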

FADD−/− Jurkat cells = test: Necroptosis inhibition assay, TNF-α-induced necroptosis (CellTiter-Glo 2.0); format: cell-based, human; details: TNF-α 15 ng/mL; for Necroptosis inhibition assay (Rescue %) 1 μM: compound 1 μM; for Necroptosis inhibition assay (Rescue %) 10 μM: compound 10 μM
Summary of the method: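 Compound is added to cells at final concentrations of 0.1, 1 and 10 μM and left 30 minutes at room temperature. Necroptosis is induced with 15 ng/mL TNF-α, culture continues 20 to 24 hours at 37° C, and ATP-based luminescence reports viability.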

MLKL [2] = target: T1, MLKL; test: Measurement of binding affinity with MLKL receptor (competitive binding assay, Kd); parameters: made in house; host or cells: HEK 293 cell line (T7 phage in E. coli BL21-derived host is also described)
Summary of the method: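 qPCR of MLKL eluted from liganded beads served as the read-out, from which Kd was derived. The protein was made in HEK 293 cells with a DNA tag, and test compounds competed with the bead-bound ligand at 0.9% final DMSO.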

| Compound | Degradation assay (Degradation %) 1 μM (MLKL [1]) [%] | pKd (MLKL [2]) | Degradation assay (Degradation %) 10 μM (MLKL [1]) [%] | Necroptosis inhibition assay (Rescue %) 1 μM (FADD−/− Jurkat cells) [%] | Necroptosis inhibition assay (Rescue %) 10 μM (FADD−/− Jurkat cells) [%] |
| --- | --- | --- | --- | --- | --- |
| Nc1ncc(-c2cnn(C3CCN(CC4CCN(C(=O)C5CCN(c6cccc7c6C(=O)N(C6CCC(=O)NC6=O)C7=O)CC5)CC4)CC3)c2)nc1C(=O)N[C@@H](C(=O)Nc1ccc(F)cc1)c1ccccc1 (stereo partly drawn) [TDH-209, 3-amino-6-(1-(1-((1-(1-(2-(2,6-dioxopiperidin-3-yl)-1,3-dioxoisoindolin-4-yl)piperidine-4-carbonyl)piperidin-4-yl)methyl)piperidin-4-yl)-1H-pyrazol-4-yl)-N-((R)-2-((4-fluorophenyl)amino)-2-oxo-1-phenylethyl)pyrazine-2-carboxamide] | 7.36 | 6.85 | – | 7.73 | 18.12 |
| Nc1ncc(-c2cnn(C3CCN(CCOCCOCCNC(=O)C4CCN(c5cccc6c5C(=O)N(C5CCC(=O)NC5=O)C6=O)CC4)CC3)c2)nc1C(=O)N[C@@H](C(=O)Nc1ccc(F)cc1)c1ccccc1 (stereo partly drawn) [TDH-213, 3-amino-6-(1-(1-(2-(2-(2-(1-(2-(2,6-dioxopiperidin-3-yl)-1,3-dioxoisoindolin-4-yl)piperidine-4-carboxamido)ethoxy)ethoxy)ethyl)piperidin-4-yl)-1H-pyrazol-4-yl)-N-((R)-2-((4-fluorophenyl)amino)-2-oxo-1-phenylethyl)pyrazine-2-carboxamide] | 4.45 | 6.48 | 8.28 | 18.34 | 44.98 |
| Nc1ncc(-c2cnn(C3CCN(CCOCCOCCNC(=O)CNc4cccc5c4C(=O)N(C4CCC(=O)NC4=O)C5=O)CC3)c2)nc1C(=O)N[C@@H](C(=O)Nc1ccc(F)cc1)c1ccccc1 (stereo partly drawn) [TDH-217, 3-amino-6-(1-(1-(2-(2-(2-(2-((2-(2,6-dioxopiperidin-3-yl)-1,3-dioxoisoindolin-4-yl)amino)acetamido)ethoxy)ethoxy)ethyl)piperidin-4-yl)-1H-pyrazol-4-yl)-N-((R)-2-((4-fluorophenyl)amino)-2-oxo-1-phenylethyl)pyrazine-2-carboxamide] | 11.62 | 7.18 | 31.11 | 24.76 | 48.87 |
| Nc1ncc(-c2cn(C3CCN(CC4CCN(C(=O)C5CCN(c6cccc7c6C(=O)N(C6CCC(=O)NC6=O)C7=O)CC5)CC4)CC3)nn2)nc1C(=O)OC(C(=O)Nc1ccc(F)cc1)c1ccccc1 (centres unmarked) [TDH-222, 2-((4-fluorophenyl)amino)-2-oxo-1-phenylethyl 3-amino-6-(1-(1-((1-(1-(2-(2,6-dioxopiperidin-3-yl)-1,3-dioxoisoindolin-4-yl)piperidine-4-carbonyl)piperidin-4-yl)methyl)piperidin-4-yl)-1H-1,2,3-triazol-4-yl)pyrazine-2-carboxylate] | 37.4 | 7.80 | 30.04 | 45.31 | 34.2 |
| Nc1ncc(-c2cn(C3CCN(CC4CCN(c5cccc6c5C(=O)N(C5CCC(=O)NC5=O)C6=O)CC4)CC3)nn2)nc1C(=O)OC(C(=O)Nc1ccc(F)cc1)c1ccccc1 (centres unmarked) [TDH-225, 2-((4-fluorophenyl)amino)-2-oxo-1-phenylethyl 3-amino-6-(1-(1-((1-(2-(2,6-dioxopiperidin-3-yl)-1,3-dioxoisoindolin-4-yl)piperidin-4-yl)methyl)piperidin-4-yl)-1H-1,2,3-triazol-4-yl)pyrazine-2-carboxylate] | 36.29 | 8.10 | 25.24 | 55.04 | 49.01 |
| Nc1ncc(-c2ccc(N3CCN(CC4CCN(C(=O)CNc5ccc6c(c5)C(=O)N(C5CCC(=O)NC5=O)C6=O)CC4)CC3)nc2)nc1C(=O)OC(C(=O)Nc1ccc(F)cc1)c1ccccc1 (centres unmarked) [TDH-233, 2-((4-fluorophenyl)amino)-2-oxo-1-phenylethyl 3-amino-6-(6-(4-((1-((2-(2,6-dioxopiperidin-3-yl)-1,3-dioxoisoindolin-5-yl)glycyl)piperidin-4-yl)methyl)piperazin-1-yl)pyridin-3-yl)pyrazine-2-carboxylate] | 15.59 | 6.80 | 16.2 | 23.37 | 4.71 |

Now from value to compound, other results behind:

| Degradation assay (Degradation %) 1 μM (MLKL [1]) [%] | pKd (MLKL [2]) | Degradation assay (Degradation %) 10 μM (MLKL [1]) [%] | Compound | Necroptosis inhibition assay (Rescue %) 1 μM (FADD−/− Jurkat cells) [%] | Necroptosis inhibition assay (Rescue %) 10 μM (FADD−/− Jurkat cells) [%] |
| --- | --- | --- | --- | --- | --- |
| 9.7 | 8.20 | 29.62 | Cc1ncsc1-c1ccc(CNC(=O)[C@@H]2C[C@@H](O)CN2C(=O)[C@@H](NC(=O)CN2CCC(CN3CCC(n4cc(-c5cnc(N)c(C(=O)O[C@@H](C(=O)Nc6ccc(F)cc6)c6ccccc6)n5)cn4)CC3)CC2)C(C)(C)C)cc1 [TDH-211, (R)-2-((4-fluorophenyl)amino)-2-oxo-1-phenylethyl 3-amino-6-(1-(1-((1-(2-(((S)-1-((2S,4R)-4-hydroxy-2-((4-(4-methylthiazol-5-yl)benzyl)carbamoyl)pyrrolidin-1-yl)-3,3-dimethyl-1-oxobutan-2-yl)amino)-2-oxoethyl)piperidin-4-yl)methyl)piperidin-4-yl)-1H-pyrazol-4-yl)pyrazine-2-carboxylate] | 29.87 | 41.58 |
| 29.38 | 7.64 | 12.51 | Nc1ncc(-c2cn(C3CCN(CC4CCN(C(=O)CNc5ccc6c(c5)C(=O)N(C5CCC(=O)NC5=O)C6=O)CC4)CC3)nn2)nc1C(=O)OC(C(=O)Nc1ccc(F)cc1)c1ccccc1 (centres unmarked) [TDH-223, 2-((4-fluorophenyl)amino)-2-oxo-1-phenylethyl 3-amino-6-(1-(1-((1-((2-(2,6-dioxopiperidin-3-yl)-1,3-dioxoisoindolin-5-yl)glycyl)piperidin-4-yl)methyl)piperidin-4-yl)-1H-1,2,3-triazol-4-yl)pyrazine-2-carboxylate] | 34.97 | 23.64 |
| 49.26 | 7.72 | 56.93 | Nc1ncc(-c2cn(C3CCN(CC4CCN(C(=O)CNc5cccc6c5C(=O)N(C5CCC(=O)NC5=O)C6=O)CC4)CC3)nn2)nc1C(=O)OC(C(=O)Nc1ccc(F)cc1)c1ccccc1 (centres unmarked) [TDH-224, 2-((4-fluorophenyl)amino)-2-oxo-1-phenylethyl 3-amino-6-(1-(1-((1-((2-(2,6-dioxopiperidin-3-yl)-1,3-dioxoisoindolin-4-yl)glycyl)piperidin-4-yl)methyl)piperidin-4-yl)-1H-1,2,3-triazol-4-yl)pyrazine-2-carboxylate] | 63.63 | 67.66 |
| – | 7.80 | 36.06 | Nc1ncc(-c2cn(C3CCN(CC4CCN(c5ccc6c(c5)C(=O)N(C5CCC(=O)NC5=O)C6=O)CC4)CC3)nn2)nc1C(=O)OC(C(=O)Nc1ccc(F)cc1)c1ccccc1 (centres unmarked) [TDH-226, 2-((4-fluorophenyl)amino)-2-oxo-1-phenylethyl 3-amino-6-(1-(1-((1-(2-(2,6-dioxopiperidin-3-yl)-1,3-dioxoisoindolin-5-yl)piperidin-4-yl)methyl)piperidin-4-yl)-1H-1,2,3-triazol-4-yl)pyrazine-2-carboxylate] | 36.17 | 17.82 |
| 64.08 | 8.80 | 54.89 | Nc1ncc(-c2cnn(C3CCN(CC4CCN(CC(=O)NCCNc5cccc6c5C(=O)N(C5CCC(=O)NC5=O)C6=O)CC4)CC3)c2)nc1C(=O)OC(C(=O)Nc1ccc(F)cc1)c1ccccc1 (centres unmarked) [TDH-234, 2-((4-fluorophenyl)amino)-2-oxo-1-phenylethyl 3-amino-6-(1-(1-((1-(2-((2-((2-(2,6-dioxopiperidin-3-yl)-1,3-dioxoisoindolin-4-yl)amino)ethyl)amino)-2-oxoethyl)piperidin-4-yl)methyl)piperidin-4-yl)-1H-pyrazol-4-yl)pyrazine-2-carboxylate] | 35.55 | 26.56 |
